Experimental data published in US9908908B2, “Tenofovir prodrug and pharmaceutical uses thereof” (Jiangsu Hansoh Pharmaceutical Co., Ltd., priority 2012, dated 2018).
Where two headings read alike, the source gives them in different places.

How the values were obtained:
hepatitis B virus (HBV) = assay: In vitro anti-hepatitis B virus activity (HBV DNA-replication, dot blot); type: cell-based
Experimental: HepG 2.2.15 cell was used as the hepatitis B virus (HBV) vehicle to determine the inhibition effect of the compounds on DNA-replication of HBV.
Test method: HepG 2.2.15 cells were seeded into a 96-well culture plate. Various dilutions of test samples and positive control were added, respectively, after 24 hours, in which a cell control well was set. The medium was replaced with culture containing various dilutions of test samples after 72 hours. The supernatants and HepG 2.2.15 cells were collected after 6 days of culture.

HepG 2.2.15 cells = assay: Cytotoxicity test (CellTiter-Blue); type: cell-based
Experimental: (§1) Test method: HepG 2.2.15 cells were seeded into a 96-well culture plate and various dilutions of test samples and positive control were added, respectively. CellTiter-Blue (Promega, Catalog #G8081) was added for 6 days of culture.

[1] = Stability test in simulated gastric juice (pepsin, pH 2.0); type: physicochemical; conditions: for Change value / Purity after 6 hours: 37° C., 6 hours; for Initial purity: initial sample
Experimental: 10 ml of the stock solution and 500.0 mg of pepsin were transferred into a 50 mL volumetric flask and diluted with water to 50 ml, which was then subjected to ultrasound to dissolve the pepsin (the solution was not clear now) and then filtered to give a clear solution as simulated gastric juice.
5.0 mg of GS-7340 were transferred into a 5 mL volumetric flask and mixed with 2.5 mL of isopropyl alcohol to dissolve GS-7340, and then the simulated gastric juice was added to 5 mL. The solution was shaken well and filtered for using.
5.0 mg of compound Ia1 were transferred into a 5 mL volumetric flask and mixed with 2.5 mL of isopropyl alcohol to dissolve compound Ia1, and then the simulated gastric juice was added to 5 mL. The solution was shaken well and filtered for using.
(§2) The prepared sample was filled into the chromatography vial as the initial sample and immediately injected. Meanwhile, the rest of the samples were put into a 37° C. incubator, and were injected into the HPLC system after 6 hours.

[2] = Cytotoxicity in cells free of virus (anti-HIV test); type: cell-based; conditions: human
Experimental: (§3) 3) Cells for the cytotoxic detection were incubated in a 384-well plate for 3 days.
(§4) 6) Luminescent signal of the cells free of virus was detected to evaluate cytotoxicity after incubation for 3 days.
(§5) 7) The antiviral activity and cytotoxicity were calculated according to the following equation: Antiviral activity (%)=100−(Detection value−Maximum value)/(Minimum value−Maximum value)*100 Cytotoxicity (%)=100−(Detection value−Maximum value)/(Minimum value−Maximum value)*100 8) EC50 and CC50 were calculated with Fit Curve of Graphpad Prism 5 (the results are shown in Table 4).

HIV-1 (IIIb) = assay: microbe, parasite or virus in culture; type: cell-based
Experimental: 1) MT-2 cells were infected with HIV-1 (IIIb) to form multiplicity of infection (MOI) 0.01 TCID50 per cell.
2) The mixture of virus and cells was incubated in a 384-well plate for 3 days.
4) The supernatant was transferred to a new plate and incubated with reporter cells (HeLa) for 24 hours.
5) Detecting beta-GAL activity to evaluate anti-HIV activity.
as §5

[3] = background statement; cited from earlier work
[4] = Stability test in acidic medium (hydrochloric acid solution pH 2.0); type: physicochemical; conditions: for Change value / Purity after 6 hours / Initial purity: Acid medium (pH = 2); for Change value / Purity after 6 hours: 37° C., 6 hours; for Initial purity: initial sample
Experimental: 4.5 mL of 36% hydrochloric acid was transferred into a 1 L volumetric flask and diluted with water to 1 L to prepare a stock solution. Then 10 mL of the above solution was transferred into a 50 mL volumetric flask and diluted with water to 50 mL to prepare the hydrochloric acid solution with pH 2.0.
5.0 mg of GS-7340 were transferred into a 5 mL volumetric flask and mixed with 2.5 mL of isopropyl alcohol to dissolve GS-7340, and then the hydrochloric acid solution (pH 2.0) was added to 5 mL. The solution was shaken well and filtered for using.
5.0 mg of compound Ia1 were transferred into a 5 mL volumetric flask and mixed with 2.5 mL of isopropyl alcohol to dissolve compound Ia1, and then the hydrochloric acid solution (pH 2.0) was added to 5 mL. The solution was shaken well and filtered for using.
as §2

[5] = Metabolic stability in fresh human whole blood and distribution test in PBMCs; type: in vitro ADME; conditions: for active metabolite-tenofovir detected in plasma (in words): after incubation with fresh human whole blood
Experimental: Different tenofovir prodrugs were incubated together with fresh human whole blood at 37° C. Plasma and PBMCs were separated, respectively, from the whole blood (Ficoll density gradient centrifugation method) after 1 hour and 2 hours incubation to determine the concentrations of prototype drug and metabolite-tenofovir in plasma and PBMCs. The PBMCs were counted via cell counter and each PBMC was treated as 200 fL to calculate intracellular drug concentration.
20 μL of internal standard solution (400 ng/mL SN-38 solution), […], methanol-water (50:50, v/v), and 200 μL acetonitrile were added to 100 μL plasma sample or PBMC sample, respectively. The mixture was mixed by vortex for 1 min and centrifuged for 5 min (14000 rpm). 20 μL supernatant and 180 μl mobile phase were mixed by vortex for 1 min, and 10 μL of the above mixture was injected into LC/MS/MS for analysis.

[6] = Cytotoxicity test (CellTiter-Blue); type: cell-based; conditions: human; HepG 2.2.15 cells, 6 days of culture; read-out: Toxicity CC50
Experimental: as §1

MT-2 cells = assay: Cytotoxicity in cells free of virus (anti-HIV test); type: cell-based
Experimental: as §3, §4, §5

[7] = cells free of virus, 3 days, luminescent signal, read-out: Toxicity CC50
[8] = Human immunodeficiency virus 1, IIIB, MT2, 72 h
[9] = Hepatitis B virus, HepG2.2.15, 144 h
[10] = 0 hour, initial concentration, fresh human whole blood
[11] = 1 hour incubation at 37° C., in PBMCs
[12] = 1 hour incubation at 37° C., in plasma
[13] = 2 hour incubation at 37° C., in PBMCs
[14] = 2 hour incubation at 37° C., in plasma

Row | SMILES | IC50 (hepatitis B virus (HBV); [9]) | CC50 at 6 days [6] | inhibitory effect on HBV-DNA replication (in words) (hepatitis B virus (HBV); HepG 2.2.15 cells) | inhibitory effect on HBV-DNA replication compared with positive control GS7340 (hepatitis B virus (HBV); HepG 2.2.15 cells) | cytotoxicity (in words) (HepG 2.2.15 cells) | further results
1 | CC(C)OC(=O)[C@H](C)N[P@](=O)(CO[C@H](C)Cn1cnc2c(N)ncnc21)Oc1ccccc1 [GS-7171, reference compound] |  |  |  |  |  | IC50 (hepatitis B virus (HBV); HepG 2.2.15 cells, 6 days of culture, HBV DNA-replication by dot blot, read-out: IC50): 35 nM; CC50 (HepG 2.2.15 cells; 6 days of culture, read-out: Toxicity CC50): > 10000 nM
2 | CC(C)OC(=O)[C@H](C)N[P@](=O)(CO[C@H](C)Cn1cnc2c(N)ncnc21)Oc1ccccc1 [GS-7340, reference compound] | 14 nM | > 10000 nM |  |  |  | Change value [1]: 4.3%; Purity after 6 hours [1]: 94.4%; Initial purity [1]: 98.7%; CC50 at 3 days [2, 7]: > 150000 nM; EC50 (HIV-1 (IIIb); [8]): 12 nM; metabolite-tenofovir detected in plasma [3]: 1-2%; total concentration of the active ingredient in PBMCs relative to tenofovir [3]: 30 times; total concentration of the active ingredient in PBMCs relative to tenofovir disoproxil [3]: 10 times; Change value [4]: 3.2%; Purity after 6 hours [4]: 95.5%; Initial purity [4]: 98.7%; Prototype concentration [5, 10]: 16.9 µM; Prototype concentration [5, 11]: 2448 µM; Prototype concentration [5, 12]: 14.5 µM; change of active metabolite-tenofovir concentration in PBMCs over the incubation time (in words) ([5]; 1 hour to 2 hours): almost the same; change of active metabolite-tenofovir released in plasma over the incubation time (in words) ([5]; 1 hour to 2 hours): increased significantly; Prototype concentration [5, 13]: 2357 µM; Prototype concentration [5, 14]: 13.0 µM; active metabolite-tenofovir detected in plasma (in words) [5]: certain active metabolite-tenofovir was detected
3 | CC(C)OC(=O)C(C)(C)N[P@](=O)(CO[C@H](C)Cn1cnc2c(N)ncnc21)Oc1ccccc1 [Ia1] | 5 nM | > 10000 nM | significant inhibitory effect | better than that of the positive control GS7340 | without cytotoxicity | Change value [1]: 0.5%; Purity after 6 hours [1]: 98.2%; Initial purity [1]: 98.7%; cytotoxicity (in words) (MT-2 cells): no cytotoxicity; CC50 at 3 days [2, 7]: > 150000 nM; inhibitory effect on HIV virus (in words) (HIV-1 (IIIb)): strong inhibitory effect; EC50 (HIV-1 (IIIb); [8]): 8 nM; Change value [4]: 0.6%; Purity after 6 hours [4]: 98.1%; Initial purity [4]: 98.7%; stability compared to GS-7340 (in words) ([4]; acid medium and simulated gastric juice): significantly improved; Prototype concentration [5, 10]: 12.4 µM; Prototype concentration [5, 11]: 1528 µM; Prototype concentration [5, 12]: 12.3 µM; change of active metabolite-tenofovir concentration in PBMCs over the incubation time (in words) ([5]; 1 hour to 2 hours): increased significantly; Prototype concentration [5, 13]: 1282 µM; Prototype concentration [5, 14]: 12.2 µM; concentration of active metabolite-tenofovir in PBMCs relative to GS-7340 ([5]; after incubation for 2 hours): about three times; active metabolite-tenofovir detected in plasma (in words) [5]: no active metabolite-tenofovir was detected; stability in plasma (in words) ([5]; fresh human whole blood, compared with GS-7340): significantly better than the positive control GS-7340
4 | CC(C)OC(=O)C(C)(C)N[P@@](=O)(CO[C@H](C)Cn1cnc2c(N)ncnc21)Oc1ccccc1 [Ia2] | 32 nM | > 10000 nM |  |  |  | 
5 | CC(C)OC(=O)C(C)(C)NP(=O)(CO[C@H](C)Cn1cnc2c(N)ncnc21)Oc1ccccc1 (some centres unmarked) [Ia] | 21 nM | > 10000 nM |  |  |  | 
6 | CC(C)OC(=O)C1(N[P@](=O)(CO[C@H](C)Cn2cnc3c(N)ncnc32)Oc2ccccc2)CC1 [Ib1] | 15 nM | > 10000 nM | significant inhibitory effect |  | without cytotoxicity | 
7 | CC(C)OC(=O)C(C)(C)N[P@](=O)(CO[C@H](C)Cn1cnc2c(N)ncnc21)Oc1ccc(Cl)cc1 [Ic1] | 5.3 nM | > 10000 nM | significant inhibitory effect | better than that of the positive control GS7340 | without cytotoxicity | 
8 | COc1ccc(O[P@@](=O)(CO[C@H](C)Cn2cnc3c(N)ncnc32)NC(C)(C)C(=O)OC(C)C)cc1 [Id1] | 6.2 nM | > 10000 nM | significant inhibitory effect | better than that of the positive control GS7340 | without cytotoxicity | 
9 | CC(C)OC(=O)C(C)(C)N[P@](=O)(CO[C@H](C)Cn1cnc2c(N)ncnc21)Oc1cccc2ccccc12 [If1] | 7.5 nM | > 10000 nM | significant inhibitory effect | better than that of the positive control GS7340 | without cytotoxicity | 
10 | Cc1cccc(C)c1O[P@@](=O)(CO[C@H](C)Cn1cnc2c(N)ncnc21)NC(C)(C)C(=O)OC(C)C [Ih1] | 5.9 nM | > 10000 nM | significant inhibitory effect | better than that of the positive control GS7340 | without cytotoxicity | 
11 | CC(C)OC(=O)C(C)(C)N[P@](=O)(CO[C@H](C)Cn1cnc2c(N)ncnc21)Oc1ccc(F)cc1 [Ii1] | 8.3 nM | > 10000 nM |  | better than that of the positive control GS7340 |  | 
12 | CC(C)OC(=O)C(C)(C)N[P@](=O)(CO[C@H](C)Cn1cnc2c(N)ncnc21)Oc1ccc(C(F)(F)F)cc1 [Ij1] | 7 nM | > 10000 nM | significant inhibitory effect | better than that of the positive control GS7340 | without cytotoxicity | 
13 | CC(C)OC(=O)OCOP(=O)(CO[C@H](C)Cn1cnc2c(N)ncnc21)OCOC(=O)OC(C)C [Tenofovir Disoproxil, reference compound] |  |  |  |  |  | CC50 at 3 days [2]: 16900 nM; EC50 (HIV-1 (IIIb); Human immunodeficiency virus 1, MT2, 72 h, MT-2 cells infected with HIV-1 (IIIb), 3 days, read-out: EC50): 11 nM
